Two molecules from US20260285816A1, “Piperazinyl-Modified Quinazolinyl-Aryl Urea Derivative, And Preparation Method And Use Thereof” (Guangxi Normal University, priority 2025, published 2026) can be followed below.

In one series the test system is bladder cancer J82 cells. Put plainly: J82 tumor-bearing nude mouse model. The format is in vivo, BALB/c-nu mice. As for the experimental part:
(§1) Experimental method: bladder cancer J82 cells in logarithmic growth phase were trypsinized, collected, and then centrifuged, and resuspended in serum-free DMEM medium after discarding an original medium. Cell density was adjusted, and 0.2 mL cell suspension was subcutaneously inoculated into 5-week-old BALB/c-nu mice (sex-balanced, 18-20 g) under a laminar flow clean bench. Post-inoculation, bleeding at injection sites was monitored. When tumors reached 50-80 mm^3, nude mice with good tumor growth status were randomized into 5 groups (n=6/group) for intraperitoneal administration. Tumor volume and body weight were recorded on Day 0. […] Dosing occurred every 2 d for 42 d. After administering the drug, mice were monitored for diarrhea, anorexia, lethargy, and allergic reactions (e.g., pruritus). The body weight of nude mice was measured every 2 days, and the long and short diameters of the tumors in nude mice were measured by using a vernier caliper, then the recording was finished.
0.9% normal saline was added thereto to obtain a solution, which was sterilized under UV light for 30 min. Administration volume was 10 mL/kg per mouse. The preparation contained PEG400 and 0.9% normal saline at a 3:1 volume ratio, with 2% (v/v) DMA.

The subject of a further series is 143B cells. Put plainly: Cell cycle analysis (PI staining, flow cytometry), 143B. The format is cell-based, human. As to the method:
(§2) Tumor cells (T24, UM-UC-3, 143B, BxPC-3) in logarithmic growth phase were inoculated into 70 mm culture dishes. After 70% confluency was reached, medium was replaced and treated with: compound 8-1j, ferroptosis inducer Erastin, or cell cycle blocker paclitaxel (PTX) for a specified duration. Post-incubation, cells were trypsinized, collected, centrifuged, and washed 2 times with pre-cooled phosphate-buffered saline (PBS). Pre-cooled 75% ethanol was added dropwise during vortexing for fixation at −20° C. overnight. After centrifugation (10 min), supernatant was discarded. Cells were rewashed with PBS and centrifuged. Following kit instructions (Beyotime, C1052, China), 0.5 mL staining buffer, 25 μL PI (propidium iodide) stain (20×), and 10 μL RNase A (50×) were mixed per sample. Cells were resuspended in PI staining solution and incubated at 37° C. in dark for 30 min (gentle shaking every 10 min). Samples were filtered through 200-mesh filters, transferred into a flow tube, and analyzed via BD FACSVerse flow cytometer. All experiments were conducted in 3 repeats. Compounds 8-2h and 8-2j were evaluated identically.
(Flow cytometry measures light scatter and fluorescence of single cells or particles in a stream.)

Series [1] relates to FoxM1, KIF20A, Nrf2, xCT, GPx4, FTH1, HO-1, IRP2, CD71 in bladder cancer T24 cells. The experiment in a line: Western blot of cell cycle- and ferroptosis-related proteins. Type of series: cell-based, human. As for the experimental part:
Experimental method: bladder cancer T24 cells in logarithmic growth phase were inoculated into 100 mm culture dishes. After 70% confluency was reached, medium was replaced and treated with compound 8-1j or ferroptosis inhibitor Fer-1. Post-co-incubation, cells were trypsinized, collected, and washed with pre-cooled PBS. 0.2 mL of RIPA cell lysis buffer was added to each tube, mixed thoroughly, and transferred to a 1.5 mL centrifuge tube, and lysed on ice with agitation for 30 min. Lysates were centrifuged at 12,000 rpm (4° C., 10 min) to collect supernatants. Supernatants were mixed with 5×SDS-PAGE protein loading buffer, heated at 95° C. for 7 min, and stored at −80° C. SDS-PAGE (sodium dodecyl sulfate-polyacrylamide gel electrophoresis) was conducted at 80 V until entry into separating gel, then at 120 V until bromophenol blue reached the gel bottom. Gels were cut according to molecular weight indicated by Marker, transferred to membranes, blocked, and then immune reaction was performed. Protein bands were visualized by an enhanced chemiluminescence (ECL) detection system. Band densities were analyzed using ImageJ software. Three repeated experiments were conducted.

The test system of another series is T24 cells. Put plainly: Cell cycle analysis (PI staining, flow cytometry), T24. The format is cell-based, human. As to the method: as §2
In the next series the test system is human osteosarcoma 143B. The experiment in a line: 143B tumor-bearing nude mouse model. Type of series: in vivo, nude mice. Particulars: 40 mg/kg oral gavage, every 2 d, 42 d. As to the method:
as §1
Construction of the human osteosarcoma 143B tumor-bearing nude mouse model followed similar procedures, with identical dosing frequency but administration route changed to oral gavage. Specifically: When tumors reached 60-90 mm^3, mice were randomized into 4 groups (n=6). […]

In a further series the test system is BxPC-3 cells. Put plainly: Cell cycle analysis (PI staining, flow cytometry), BxPC-3. The format is cell-based, human. As for the experimental part: as §2
The test system of series [2] is human pancreatic cancer BxPC-3. The experiment in a line: BxPC-3 tumor-bearing nude mouse model. Type of series: in vivo, nude mice. More on the design: Tumor growth control, high dose: dose or concentration left out as unconfirmed.
Where [3] appears, read: 20 mg/kg intraperitoneal, every 2 d for 42 d.

Take `COc1cc2ncnc(NCc3cccc(NC(=O)Nc4ccc(C(C)(C)C)cc4)c3)c2cc1OCCCCCCN1CCN(CCN2CCOCC2)CC1` [Compound 8-1j, N-(3-(((7-methoxy-6-((6-(4-(2-morpholinoethyl)piperazin-1-yl)hexyl)oxy)quinazolin-4-yl)amino)methyl)phenyl)-N′-(4-tert-butylphenyl)urea]: in the series with bladder cancer J82 cells (setting [3]), the “Body weight and tolerability observations” value is “Mild weight loss occurs without anorexia, diarrhea, or pruritus”. The “Tumor growth rates vs. vehicle control and equi-dose positive control” value in the series with bladder cancer J82 cells (setting [3]) is given as “significantly lower”. Moreover, the “Anti-tumor efficacy compared with 9g (A-2)” value in the series with bladder cancer J82 cells (at 20 mg/kg intraperitoneal) is “surpassed that of 9g (A-2)”. The “Cell cycle arrest phase” value in the series on 143B cells (143B cells (FIG. 46)) and in the series with T24 cells (T24 cells (FIG. 44)) was “arrest cell cycle at G2/M phase” each time. Besides, the “Effect of co-administration with PTX on cell cycle” value in the series with 143B cells (143B, with PTX) is “Synergistic effects”; in the series on T24 cells (T24, with PTX), “Synergistic effects”. In series [1], the “Ferroptosis-related proteins HO-1, IRP2, and CD71 expression” value is given as “upregulating”. In series [1] (concentration-dependently), the “FoxM1, KIF20A, Nrf2, xCT, GPx4, and FTH1 expression” value was “significantly downregulates”. Also, the Tumor inhibition entry with human osteosarcoma 143B was “significantly stronger tumor inhibition than positive control Apat”.

As for `CCc1cccc(CC)c1NC(=O)Nc1cccc(CNc2ncnc3cc(OC)c(OCCCCCCN4CCC(CN5CCN(c6ccccn6)CC5)CC4)cc23)c1` [Compound 8-2h, N-(3-(((7-methoxy-6-((6-(4-((4-(pyridin-2-yl)piperazin-1-yl)methyl)piperidin-1-yl)hexyl)oxy)quinazolin-4-yl)amino)methyl)phenyl)-N′-(2,6-diethylphenyl)urea], the “Cell cycle arrest phase, high concentration” value in the series with BxPC-3 cells (high concentration (>6 μM)) was “G2/M arrest”. Moreover, the “Cell cycle arrest phase, low concentration” value in the series on BxPC-3 cells (low concentration (e.g., 3 μM)) is on record as “G0/G1 arrest”. Further, in the series with BxPC-3 cells (with PTX), the “Effect of co-administration with PTX on cell cycle” value is “Synergistic effects”. In series [2], the “Tumor growth control, high dose” value is on record as “controls tumor growth by Day 28”. In addition, the “Tumor after continued administration” value in series [2] (high dose, oral gavage, up to 42 d) is listed as “significantly shrank”. The Toxicity observations result in series [2] (oral gavage, gemcitabine 24 mg/kg, 8-2h 12, 24, 36 mg/kg) is “no toxicity”.
